# According to US20030216358A1, “Method for enhancing bone mineral density gain” (priority 2003, published 2003):
# Test system: postmenopausal women
# Experiment: Clinical data, summary in words: BMD and bone turnover markers after alendronate followed by raloxifene
# Assay type: in vivo, human
# Settings: alendronate for one year followed sequentially by raloxifene alone
# Experimental: A phase 3, multicenter, double-blind, placebo-controlled, randomized clinical trial was conducted. Objectives of the trial included comparing the effects of 12 months treatment with raloxifene HCl (60 mg/day), alendronate (10 mg/day), or the combination of the two agents together versus placebo on BMD at the lumbar spine and at the hip and also metabolic markers of bone turnover. Additional objectives included comparing the effects of raloxifene 60 mg/day versus placebo during a second year of study on the offset of action of raloxifene or alendronate, as assessed by these same efficacy parameters.
# Three hundred thirty-one (331) subjects were randomly assigned to one of four initial treatment groups: placebo, raloxifene 60 mg/day, alendronate 10 mg/day or raloxifene plus alendronate together. After one year of therapy all subjects were re-randomized to receive either placebo or raloxifene 60 mg/day for an additional year of study. All subjects received approximately 500 mg of elemental calcium plus 400-600 I.U. of vitamin D/day throughout the entire study. […] In addition subjects had BMD and biochemical markers of bone turnover (including serum osteocalcin) repeated at six monthly intervals.
smiles,measurement,setting,value
"O=C(c1ccc(OCCN2CCCCC2)cc1)c1c(-c2ccc(O)cc2)sc2cc(O)ccc12 [raloxifene, 6-hydroxy-2-(4-hydroxyphenyl)-3-[4-(2-piperidinoethoxy)benzoyl]-benzo[b]thiophene]",bone turnover markers,,either return towards normal or remain suppressed but do not further decrease
same,BMD,compared to alendronate followed by placebo,further increases of BMD
